Measurements taken from patent US8273771B2, “Ischemic disorder or disease inhibitors” (Pronas Pharma AB, priority 2007, dated 2012).

System: rats with induced SAH
Test: Autoradiographic measurements of regional and global CBF after SAH
Type: in vivo, rat
Settings: for reduction in regional CBF (rCBF) after SAH: 18 brain regions
Experimental: In addition they were treated with 20-50 μl; 10^-6 M of SB386023-b (a kind gift from Dr A A Parsons, GSK, UK) or the same volume of vehicle repeatedly 6, 12, 24 and 36 h after the induced SAH. This dose was based on a previous in vivo study with SAH.
In addition, they were treated with the PKC inhibitor RO-31-7549 (Calbiochem, Sweden) or vehicle in conjunction with the operation and after the induced SAH. All animals treated with RO-31-7549 received […] injections intracisternally of RO-31-7549 or vehicle in similar volume. Thus, 20 to 50 μl 10-^6 mol/L of RO-31-7549 was injected intracisternally at 30 mins before the induced SAH and after the SAH 20 μl 10-^6 mol/L of RO-31-7549 was administered repeatedly after 3, 6, 12, 24 and 32 h from the first RO-31-7549 injection. This dose was chosen on the basis of previous detailed work on isolated cerebral arteries (Hansen-Schwartz et al, 2002), the dose was chosen at near maximum inhibition and calculation of cerebrospinal fluid volume/turnover.
Regional and global cerebral blood flow was measured by a model originally described by Sakurada et al., (1978) and modified by Gjedde et al., (1980). In brief, after 48 hours of observation rats in the various groups (sham, SAH+vehicle and SAH treated with the raf inhibitor) were anaesthetized using 5% halothane in N2O/O2 (30:70). The animal was intubated and artificially ventilated with inhalation of 0.5-1.5% halothane in N2O/O2 (70:30) during the surgical procedure. The anaesthesia and the respiration were monitored by regularly withdrawing arterial blood samples for blood gas analysis (Radiometer AS, Denmark). A catheter to measure MABP was placed in the right femoral artery and a catheter for blood sampling was placed in the left femoral artery. This catheter was connected to a constant velocity withdrawal pump (Harvard apparatus 22, USA) for mechanical integration of tracer concentration. In addition, a catheter was inserted in one femoral vein for injection of heparin and for infusion of the radioactive tracer. The MABP was continuously monitored with a Powerlab Unit (ADInstruments, UK). A temperature probe was inserted into the rectum of the rat to record the temperature, which was regularly maintained at 37° C. The hematocrit was measured by a hematocrit centrifuge (Beckman Microfuge 11, USA). After 30 minutes of equilibration a bolus injection of 50 uCi of 14Ciodoantipyrine 4[N-methyl-14C] (Perkin-Elmer, Boston, USA) was given i.v. Arterial blood (122 μl) was withdrawn over 20 seconds. Immediately after this the animal was decapitated, the brain removed and immersed in isopentane (J. T. Baker, Deventer, Netherlands) chilled to −50° C. The arterial blood sample was transferred to liquid scintillation counting vials containing 1 ml mixture of Soluene-350 (Perkin-Elmer, Boston, USA) and Isopropanol (J. T. Baker, Deventer, Netherlands) (1:1). After 2 hours at 60° C., 0.2 ml of 30% hydrogen peroxide was added to the vials, and the samples were maintained at room temperature for 15-30 minutes. Thereafter the samples were kept at 60° C. for 30 minutes and 10-15 ml Hionic-Fluor (Perkin-Elmer, Foster, Calif., USA) was added. The β-radioactivity scintillation counting was performed on the samples with a program that included quench correction (Packard 2000 CA, Denmark). The 14C activity in the tissue was determined after sectioning the brain in 20 μm sections at −20° C. in a cryostat (Wild Leitz A/S, Glostrup, Denmark). The sections were exposed to x-ray films (Kodak, Denmark) together with 14C methylmethacrylate standards (Amersham Life Science, England) and exposed the films for 20 days. Densities of the autoradiograms were measured with a Macintosh computer equipped with an analog CF 4/1 camera (Kaiser, Germany) and a transparency flat viewer (Color-Control 5000, Weilheim, Germany). The 14C content was determined in several brain regions (see Table 2). […]

[1] = intracisternal injections from 30 min before SAH and repeatedly after

| Compound | global reduction in CBF after SAH [1] | reduction in regional CBF (rCBF) after SAH [1] | global cerebral blood flow (measured at 48 h, treatment 6 h after the SAH, control 140±6, SAH 63±2) [ml/100 g/min] | reduction in regional CBF (rCBF) after SAH (treatment at 6 h after SAH) | reduction in regional CBF (rCBF) after SAH (treatment at 0 h / in conjunction with the SAH) |
| --- | --- | --- | --- | --- | --- |
| Cn1cc(C2=C(c3cn(CCCN)c4ccccc34)C(=O)NC2=O)c2ccccc21 [RO-31-7549] | prevented the marked reduction in CBF | prevented this reduction in rCBF | – | – | – |
| Oc1cc(-c2nc(-c3ccccc3)[nH]c2-c2ccncc2)ccc1Cl [SB386023-b] | – | – | 128±4 | prevented this reduction in rCBF | – |
| N#CC(=C(/N)Sc1ccccc1N)/C(C#N)=C(\N)Sc1ccccc1N [U0126] | – | – | – | prevented this reduction in rCBF | prevented this reduction in rCBF |
